Laboratory results as given in PMC7370100, “In Vitro Assessment of the Genotoxic Hazard of Novel Hydroxamic Acid- and Benzamide-Type Histone Deacetylase Inhibitors (HDACi)” (International Journal of Molecular Sciences, 2020).
Like-named read-outs stand apart in the source and are kept apart here.

Assays:
[1] = test system: SH-SY5Y neuroblastoma cells; assay: Alamar blue assay (cell viability), SH-SY5Y cells; type: cell-based, human
Description: (§1) V79 hamster lung cells, which are recommended in the OECD toxicology guidelines for hazard identification (i.e., cytotoxicity and genotoxicity) of chemicals, were purchased from the German Collection of Microorganisms and Cell Cultures (DSMZ, Braunschweig, Germany). They were cultured in Dulbecco´s modified Eagle medium and Ham´s F12 medium (DMEM/F12) (PromoCell, Heidelberg, Germany) containing 10% fetal calf serum at 37 °C in a humidified atmosphere containing 5% CO2. VC8 hamster cells were defective in DNA double-strand break (DSB) repair by homologous recombination (HR) due to the lack of functional BRCA2 protein [69, 70]. VC8 cells were provided by B. Kaina (Institute of Toxicology, Mainz, Germany). Nucleotide excision repair defective XPA and CSB deficient cells were also provided by B. Kaina and were described before. They were grown in DMEM containing 10% fetal calf serum. Human neuroblastoma cells (IMR-32 and SH-SY5Y) were purchased from the German Collection of Microorganisms and Cell Cultures (DSMZ, Braunschweig, Germany) and were used as a model of malignant cells. They were grown in DMEM or RPMI (Roswell park memorial institute) medium, respectively, containing 10% fetal calf serum. If not stated otherwise, HDACi were added to the exponentially growing cells and analyses were performed 6 h to 72 h later.
(§2) Cell viability was determined using the Alamar blue assay, which reflected the mitochondrial activity. Viable cells were characterized by an effective mitochondrial metabolization of the non-fluorescent dye resazurin (Sigma, Steinheim, Germany) to fluorescent resorufin (excitation: 535 nm, emission: 590 nm). Relative viability in the untreated control was set to 100%. In addition, the Neutral red assay, which measures the integrity of lysosomal membranes, was used to monitor cytotoxicity. To this end, cells were incubated with the Neutral red solution (0.01%) in an atmosphere containing 5% CO2 for 90 min before they were fixed (1% formaldehyde/1% CaCl2). Afterwards, the Neutral red that was taken up by the cells was extracted (50% ethanol/1% of acetic acid, 15 min at room temperature (RT)) and absorbance (540 nm) was measured. If not stated otherwise, data are shown as the mean ± standard deviation (SD) of two to three independent experiments each performed in quadruplicate. Approximate IC50 (~IC50, see Supplementary Table S1) were calculated from the corresponding dose-response curves.

V79 cells [2] = assay: Nuclear γH2AX foci and pan-staining (immunocytochemistry); type: cell-based, hamster; details: for > 5 < 30 Foci [%] / Pan-Stained [%] / ≤ 5 Foci [%] (cells with γH2AX foci) / ≥ 30 Foci [%] / formation of nuclear γH2AX foci: 24 h; for > 5 < 30 Foci [%] / Pan-Stained [%] / ≤ 5 Foci [%] (cells with γH2AX foci) / ≥ 30 Foci [%] / gH2AX Foci / gH2AX Pan-Stain: V79; for gH2AX Foci / gH2AX Pan-Stain: summary grade; for formation of nuclear γH2AX foci: V79, in words; as to gH2AX Foci: key: −: no effect; 0: weak effect; +: moderate effect; ++: strong effect; +++: very strong effect as compared to untreated controls; as to gH2AX Pan-Stain: key: −: no effect; 0: weak effect; +: moderate effect; ++: strong effect; +++: very strong effect as compared to untreated controls
Description: The frequency of nuclear foci formed by S139 phosphorylated H2AX (γH2AX foci), which is a surrogate marker of DNA damage, especially DNA double-strand breaks (DSBs), was assayed by immunocytochemistry-based analysis. […] The appearance of nuclear 53BP1 foci, which is another marker of DSBs, was also determined by immunocytochemistry. Cells were fixed with 4% formaldehyde in phosphate-buffered saline (PBS) (MERCK, Darmstadt, Germany) (15 min, RT) followed by incubation with ice-cold methanol (≥20 min, −20 °C). After blocking (1 h, RT, blocking solution: 5% BSA (MERCK, Darmstadt, Germany) in PBS/0.3% Triton X-100 (Sigma, Steinheim, Germany)), incubation with γH2AX antibody and 53BP1 antibody was performed (1:500, overnight, 4 °C). After incubation with the secondary fluorescence-labeled antibody (1:500, 1 h, RT, in the dark), cells were mounted in Vectashield (Vector Laboratories (Burlingame, CA, USA)) containing DAPI. The number of nuclear γH2AX and 53BP1 foci was scored (Olympus BX43 fluorescence microscope). Only nuclei with distinct foci were evaluated and γH2AX pan-stained nuclei were excluded from the foci analyses. Data are shown as the mean ± SEM of three independent experiments with ≥50 nuclei analyzed per experimental condition.

V79 cells [3] = assay: Micronucleus assay; details: for micronucleus assay outcome at 50 μM (printed in Figure 2A) / Micronucl. Assay: V79; for Micronucl. Assay: summary grade
Description: We analyzed the frequency of micronuclei in binucleated cells, as described [86]. Briefly, logarithmically growing cells were treated with cytochalasin B (3 µg/m) for 24 h. After fixation with formaldehyde (3.7% in PBS, 20 min, RT) and washing with PBS, cells were permeabilized using precooled methanol (20 min, −20 °C.) After washing with PBS and rinsing the cell layer with PBS containing Triton X100 (PBST; 0.3% Triton X100 in PBS), DNA was stained by DAPI (4´,6-diamino-2-phenylindole) and the number of micronuclei was evaluated by fluorescence microscopy. Data shown are the mean ± SEM of three independent experiments with ≥1000 binucleated cells evaluated per experimental condition.

V79 cells [4] = assay: DNA damage response (DDR) activation by Western blot; type: cell-based, hamster; details: for activation of DDR factors (γH2AX, p-p53, p-Chk1, p-Chk2, p-Kap1 protein levels): V79, Western blot, in words; for DDR Activation: summary grade, V79; as to DDR Activation: key: −: no effect; 0: weak effect; +: moderate effect; ++: strong effect; +++: very strong effect as compared to untreated controls
Description: The activation of the DDR was investigated by Western blot analysis. To this end, total cell extracts were obtained by lysing an equal number of cells in Roti®-Load buffer (Carl Roth GmbH (Karlsruhe, Germany)) (5 min, RT). After sonication (EpiShear™ Probe sonicator, Active Motif, La Hulpe, Belgium), proteins were denatured by heating (5 min, 95 °C) and separated by SDS-PAGE (6% or 12.5% gel). Proteins were transferred onto a nitrocellulose membrane (GE Healthcare, Little Chalfont, UK) via the Protean Mini Cell System (BioRad (München, Germany)). The membrane was blocked with 5% non-fat milk in TBS/0.1% Tween 20 (MERCK, Darmstadt, Germany) (2 h, RT) and incubated with the corresponding primary antibody (1:1000, overnight, 4 °C). After washing with TBS/0.1% Tween 20, the secondary (peroxidase-conjugated) antibody was added (1:2000, 2 h, RT). The Fusion FX7 imaging system (PeqLab, Erlangen, Germany) was used for visualization of the bound antibodies. The following primary antibodies were used: Anti-Ser15 phosphorylated protein 53 (p-p53), anti-Talin-1, anti-Ser 345 checkpoint kinase 1 (p-Chk1), anti-cleaved caspase 3 and 7 (Cell Signaling, Beverly, MA, USA), anti-Ser824 phosphorylated Krüppel-associated box domain (KRAB)-associated protein-1 (p-Kap1), anti-Ser1981 phosphorylated ataxia telangiectasia mutated (pATM) and anti-Thr68 phosphorylated checkpoint kinase-2 (p-Chk2) (both Abcam, Cambridge, MA, USA), anti-Ser139 phosphorylated histone H2AX (γH2AX, Millipore, Billerica, MA, USA), and anti-β-actin (Santa Cruz, CA, USA). As secondary antibodies, horseradish peroxidase-conjugated secondary antibodies goat anti-mouse IgG and mouse anti-rabbit IgG (Rockland, Limerick, PA, USA) (2 h, RT) were used.

V79 hamster lung cells [5] = assay: Neutral red assay (cytotoxicity), V79 cells; type: cell-based
Description: as §1, §2

V79 hamster lung cells [6] = assay: Alamar blue assay (cell viability), V79 cells; type: cell-based; details: for less cytotoxic to non-malignant V79 cells than to malignant neuroblastoma cells (IC50 based): selection criterion, IC50 of Table S1
Description: as §1, §2

[7] = Homo sapiens, SH-SY5Y, 24 h, approximate IC50, read-out: IC50 - 24 h Treatment, SH-SY5Y
[8] = V79, 24 h after drug treatment (values match Alamar blue data of Table S1), read-out: Viability (IC50) 24 h
[9] = V79, 72 h after drug treatment (values match Alamar blue data of Table S1), read-out: Viability (IC50) 72 h
[10] = 24 h, approximate IC50, read-out: IC50 - 24 h Treatment, SH-SY5Y
[11] = 72 h, approximate IC50, read-out: IC50 - 72 h Treatment, SH-SY5Y
[12] = 24 h, approximate IC50, read-out: IC50 - 24 h Treatment, V79
[13] = 72 h, approximate IC50, read-out: IC50 - 72 h Treatment, V79

IC50 [1, 7] [µM]	> 5 < 30 Foci [%] (V79 cells [2]; 2 µM)	Pan-Stained [%] (V79 cells [2]; 2 µM)	≤ 5 Foci [%] (cells with γH2AX foci) (V79 cells [2]; 2 µM)	> 5 < 30 Foci [%] (V79 cells [2]; 10 µM)	Pan-Stained [%] (V79 cells [2]; 10 µM)	≤ 5 Foci [%] (cells with γH2AX foci) (V79 cells [2]; 10 µM)	≥ 30 Foci [%] (V79 cells [2]; 10 µM)	> 5 < 30 Foci [%] (V79 cells [2]; 50 µM)	Pan-Stained [%] (V79 cells [2]; 50 µM)	≤ 5 Foci [%] (cells with γH2AX foci) (V79 cells [2]; 50 µM)	≥ 30 Foci [%] (V79 cells [2]; 50 µM)	gH2AX Foci (V79 cells [2])	gH2AX Pan-Stain (V79 cells [2])	formation of nuclear γH2AX foci (V79 cells [2])	SMILES	Micronucl. Assay (V79 cells [3])	activation of DDR factors (γH2AX, p-p53, p-Chk1, p-Chk2, p-Kap1 protein levels) (V79 cells [4])	DDR Activation (V79 cells [4])	IC50 (V79 hamster lung cells [6]; [8]) [µM]	IC50 (V79 hamster lung cells [6]; [9]) [µM]	further results
33	54.7	0.0	39.3	18.5	3.2	75.9	2.4	34.2	26.7	23.6	15.6	+	++		O=C(CCCCCCC(=O)Nc1ccccc1)NO [Vorinostat, vorinostat, reference compound]	+	substantial increase in γH2AX levels but no, or only a minor, increase in p-p53 and p-Chk1/p-Chk2 levels	+			≥ 30 Foci [%] (V79 cells [2]; 2 µM): 6.0%; micronucleus assay outcome at 50 μM (printed in Figure 2A) (V79 cells [3]): Cytotoxic
> 50				43.6	0.4	45.2	10.8	39.4	3.2	45.3	12.2	+	+	relatively low number of γH2AX foci	Nc1ccccc1NC(=O)c1ccc(CNC(=O)OCc2cccnc2)cc1 [Entinostat, entinostat, reference compound]		substantial increase in γH2AX levels but no, or only a minor, increase in p-p53 and p-Chk1/p-Chk2 levels	+	> 50	7	IC50 ([1]; Homo sapiens, SH-SY5Y, 72 h, approximate IC50, read-out: IC50 - 72 h Treatment, SH-SY5Y): 8 µM; > 5 < 30 Foci [%] (V79 cells [2]; 100 µM): 47.2%; Pan-Stained [%] (V79 cells [2]; 100 µM): 4.6%; ≤ 5 Foci [%] (cells with γH2AX foci) (V79 cells [2]; 100 µM): 41.7%; ≥ 30 Foci [%] (V79 cells [2]; 100 µM): 6.5%; IC50 (V79 hamster lung cells [5]; V79, 24 h, approximate IC50, read-out: IC50 - 24 h Treatment, V79): > 50 µM; IC50 (V79 hamster lung cells [5]; V79, 72 h, approximate IC50, read-out: IC50 - 72 h Treatment, V79): 2 µM
				49.9	0.0	49.6	0.6	41.5	0.0	58.6	0.0	+	0	relatively low number of γH2AX foci	Nc1ccc(F)cc1NC(=O)c1ccc(CONC(=O)C=Cc2cccnc2)cc1 [MPK77]	+	failed to provoke a clear increase in γH2AX protein level	−	> 50	50	IC50 [1, 10]: 33 µM; IC50 [1, 11]: 17 µM; > 5 < 30 Foci [%] (V79 cells [2]; 100 µM): 47.9%; Pan-Stained [%] (V79 cells [2]; 100 µM): 10.2%; ≤ 5 Foci [%] (cells with γH2AX foci) (V79 cells [2]; 100 µM): 35.5%; ≥ 30 Foci [%] (V79 cells [2]; 100 µM): 6.5%; IC50 (V79 hamster lung cells [5]; [12]): > 50 µM; IC50 (V79 hamster lung cells [5]; [13]): 35 µM; frequency of micronuclei (V79 cells [3]; 24 h, V79, in words): slight but significant increase in the frequency of micronuclei; less cytotoxic to non-malignant V79 cells than to malignant neuroblastoma cells (IC50 based) (V79 hamster lung cells [6]): ≥ 10 fold

SMILES	IC50 [1, 7] [µM]	> 5 < 30 Foci [%] (V79 cells [2]; 2 µM)	Pan-Stained [%] (V79 cells [2]; 2 µM)	≤ 5 Foci [%] (cells with γH2AX foci) (V79 cells [2]; 2 µM)	> 5 < 30 Foci [%] (V79 cells [2]; 10 µM)	Pan-Stained [%] (V79 cells [2]; 10 µM)	≤ 5 Foci [%] (cells with γH2AX foci) (V79 cells [2]; 10 µM)	≥ 30 Foci [%] (V79 cells [2]; 10 µM)	> 5 < 30 Foci [%] (V79 cells [2]; 50 µM)	Pan-Stained [%] (V79 cells [2]; 50 µM)	≤ 5 Foci [%] (cells with γH2AX foci) (V79 cells [2]; 50 µM)	≥ 30 Foci [%] (V79 cells [2]; 50 µM)	gH2AX Foci (V79 cells [2])	gH2AX Pan-Stain (V79 cells [2])	formation of nuclear γH2AX foci (V79 cells [2])	Micronucl. Assay (V79 cells [3])	activation of DDR factors (γH2AX, p-p53, p-Chk1, p-Chk2, p-Kap1 protein levels) (V79 cells [4])	DDR Activation (V79 cells [4])	IC50 (V79 hamster lung cells [6]; [8]) [µM]	IC50 (V79 hamster lung cells [6]; [9]) [µM]	further results
CN(C)c1ccc(C(=O)N(CC(=O)NCc2ccccc2)Cc2ccc(C(=O)NO)cc2)cc1 [DDK137]		38.5	0.0	60.8	40.1	0.0	56.4	3.5	36.8	14.1	31.3	17.8	+	+	stimulate the formation of γH2AX foci only at a high dose of 50 µM	+	substantial increase in γH2AX levels but no, or only a minor, increase in p-p53 and p-Chk1/p-Chk2 levels	+	33	11	IC50 [1, 10]: 50 µM; IC50 [1, 11]: 0.9 µM; ≥ 30 Foci [%] (V79 cells [2]; 2 µM): 0.7%; IC50 (V79 hamster lung cells [5]; [12]): 36 µM; IC50 (V79 hamster lung cells [5]; [13]): 17 µM; micronucleus assay outcome at 50 μM (printed in Figure 2A) (V79 cells [3]): Cytotoxic; less cytotoxic to non-malignant V79 cells than to malignant neuroblastoma cells (IC50 based) (V79 hamster lung cells [6]): ≥ 10 fold
